In article PMC12062478, “Screening herbal and natural product libraries to aid discovery of novel allosteric modulators of human P2X7” (Purinergic Signalling, 2024):
pIC50: −log10 of the molar value. Read-outs that look alike come from different tables or passages of the source.

What was measured:
P2X7 [1] = biological target: T1, P2X7 (Homo sapiens, UniProt Q99572); test: ATP-induced YO-PRO-1 dye uptake in HEK-hP2X7 cells; assay type: cell-based; settings: for pIC50: HEK-hP2X7, 10 min pre-treatment, read-out: IC50 value (95% CI); for Effect on P2X7 responses: purified glycosides/aglycone from potentiating extracts; for P2X7 response (% of control): compound 10 µM injected 60 s before ATP
T1 construct: expressed in transfected cells
T1 sequence (Q99572 1-595): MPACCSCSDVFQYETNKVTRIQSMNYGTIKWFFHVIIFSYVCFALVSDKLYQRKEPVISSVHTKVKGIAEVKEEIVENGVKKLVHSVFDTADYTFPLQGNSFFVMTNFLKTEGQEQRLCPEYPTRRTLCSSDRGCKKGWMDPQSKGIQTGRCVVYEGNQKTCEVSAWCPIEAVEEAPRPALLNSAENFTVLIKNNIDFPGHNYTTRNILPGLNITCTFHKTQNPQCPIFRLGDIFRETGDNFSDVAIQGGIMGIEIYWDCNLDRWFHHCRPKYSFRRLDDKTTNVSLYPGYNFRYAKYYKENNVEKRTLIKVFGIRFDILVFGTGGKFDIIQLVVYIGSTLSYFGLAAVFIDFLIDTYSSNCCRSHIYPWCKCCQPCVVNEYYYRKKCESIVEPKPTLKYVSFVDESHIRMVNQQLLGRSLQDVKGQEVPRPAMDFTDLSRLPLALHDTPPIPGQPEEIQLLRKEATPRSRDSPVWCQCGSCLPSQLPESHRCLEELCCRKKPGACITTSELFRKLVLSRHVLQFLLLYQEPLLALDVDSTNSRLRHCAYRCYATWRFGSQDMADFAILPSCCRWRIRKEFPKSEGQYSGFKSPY
Description: HEK-hP2X7 or HEK-hP2X4 cells were plated at 2.5 × 10^4 cells per well (100 µL volume) the day before experiments into poly-D-lysine (Merck Millipore) coated 96-well plates (NUNC, Fisher Scientific #167-008). The membrane impermeant dye YO-PRO-1 iodide (Life Technologies, Fisher Scientific) was used at a final concentration of 2 µM in low divalent buffer (145 mM NaCl, 5 mM KCl, 0.2 mM CaCl2, 13 mM glucose, 10 mM HEPES, pH 7.3, osm 300–310). Media were removed from the plate, and 90 µL of YO-PRO-1 buffer was added per well. Plates were warmed to 37 °C for 5 min before recording. Data was acquired on a Flexstation 3 plate reader (Molecular Devices) using excitation wavelength 490 nm, emission wavelength 520 nm, and six reads per well (PMT medium). […] […] Pipette height was set to 80 µL and the rate of injection was 4.
YO-PRO-1 dye uptake assay data is plotted as a percentage of control where control responses are measured in the absence of plant extract. Cell viability data is plotted as a percentage of control or background-corrected fluorescence data. Concentration–response graphs were plotted using GraphPad Prism v6 with a non-linear regression fit (variable slope). IC50 values were generated from collated datasets from a minimum of three independent experiments. Statistical differences were determined by one-way ANOVA statistical tests performed using GraphPad Prism v6 with Dunnett’s multiple comparison post hoc test. Significance was taken as P ≤ 0.05.
We acquired a natural product library (Set IV) containing 419 compounds from NCI DTP and tested these on P2X7 responses using a YO-PRO-1 dye uptake in HEK293 cells stably expressing human P2X7 (HEK-hP2X7). […] This allowed us to assess for any immediate effect of the injected compound, and secondly, it allowed for any potential negative modulators to be pre-incubated with P2X7.

P2X7 [2] = biological target: T1, P2X7; test: fura-2 intracellular calcium assay in HEK-hP2X7 cells; assay type: cell-based; settings: fura-2-loaded HEK-hP2X7, 10 min pre-treatment, 1 mM ATP
Description: Supplementary Figure 3: Validation of P2X7 antagonist activity using a fura-2 assay. HEK-hP2X7 cells were loaded with fura-2AM (2µM) to measure intracellular calcium responses to ATP. Cells were loaded for 45 minutes at 37 °C and then pre-treated with various concentrations of test compounds for 10 minutes. For full methodological details please see [1]. Responses to 1mM ATP were assessed over 300 seconds using a Flexstation 3 plate reader. Ratiometric fura-2 data was converted to area under curve.

hP2X7 [3] = biological target: T2, hP2X7 (Homo sapiens, UniProt Q99572); test: Whole-cell patch-clamp electrophysiology in HEK-hP2X7 cells; assay type: cell-based; settings: 10 µM with ATP 100 µM, 5-s application, −60 mV
T2 sequence (Q99572 1-595): T1 sequence (Q99572 1-595)
Description: Stably expressing HEK-hP2X7 cells were plated onto 13-mm glass coverslips 24 h prior to use. Membrane currents were recorded in the whole-cell patch-clamp configuration using an EPC10 amplifier (HEKA Elektronik) and borosilicate glass electrodes (TF-150 World Precision Instruments), resistance […] when filled with standard internal solution (145 mM NaCl, 10 mM HEPES, 10 mM EGTA, pH 7.3). Cells were voltage-clamped at − 60 mV, and dialysis of intracellular contents was performed for 1 min prior to experimental procedures. Cells were continuously perfused by gravity feed with standard divalent buffer solution (145 mM NaCl, 5 mM KCl, 2 mM CaCl2, 1 mM MgCl2, 13 mM glucose, 10 mM HEPES, pH 7.3) prior to seal formation, and low divalent buffer solution was used for agonist and PAM application. Agonists were applied using a computer-controlled fast-flow system (RSC-160; Bio-Logic Scientific Instruments) with the perfusion capillaries placed in close proximity to the cell under investigation.
Fig. 6 Dioscin enhances P2X7-dependent pore formation and potentiates channel opening. A Dioscorea nipponica (organic) plant extract (30 µg/mL) increased ATP-dependent YO-PRO-1 iodide uptake. AZ10606120 (10 µM, grey bars) was added to block hP2X7. B YO-PRO-1 uptake following a co-stimulation of HEK-hP2X7 cells with 200 µM ATP ± the named compounds in the presence or absence of AZ10606120. YO-PRO-1 uptake was quantified between 50 and 300 s (n = 5). C Whole-cell patch-clamp recordings were performed at room temperature. Cells were voltage-clamped at − 60 mV, and responses to a 5-s stimulation of ATP (100 µM) followed by a 5-s stimulation of ATP (100 µM) + dioscin/diosgenin (10 µM) were measured from HEK-hP2X7 cells. Representative traces are shown. D Summary of normalised current amplitudes represented as a fold change compared to ATP responses in the absence of dioscin/diosgenin (n = 10–18 cells). E Concentration response to ATP in the presence of dioscin (10 µM, green) or vehicle (DMSO, black) using YO-PRO-1 uptake assay in HEK-hP2X7 and F HEK-293 cells. […]

hP2X7 [4] = biological target: T2, hP2X7; settings: cited from earlier work
[5] = screen for potential negative allosteric modulators

COc1ccc2cc3[n+](cc2c1OC)CCc1cc2c(cc1-3)OCO2 [Berberine]
pIC50 (P2X7 [1]; ATP 1 mM): 5.29 | P2X7 antagonist activity on ATP-induced calcium responses (P2X7 [2]): demonstrated P2X7 antagonist activity

C[C@@H]1CC[C@@]2(OC1)O[C@H]1C[C@H]3[C@@H]4CC=C5C[C@@H](O)CC[C@]5(C)[C@H]4CC[C@]3(C)[C@H]1[C@@H]2C [Diosgenin, diosgenin]
Effect on P2X7 responses (P2X7 [1]): could not potentiate responses | Potentiation of hP2X7 ion channel opening (hP2X7 [3]): not capable of potentiating P2X7 channel opening

O=C(O[C@@H]1Cc2c(O)cc(O)cc2O[C@@H]1c1cc(O)c(O)c(O)c1)c1cc(O)c(O)c(O)c1 [EGCG, epigallocatechin gallate]
P2X7 antagonist activity on ATP-induced calcium responses (P2X7 [2]): demonstrated P2X7 antagonist activity

Cc1cc(O)c2c(c1)C(=O)c1cc(O)cc(O)c1C2=O [Emodin]
pIC50 (P2X7 [1]; ATP 1 mM): 4.26 | pIC50 (hP2X7 [4]; electrophysiological recordings, read-out: IC50): 5.52

CC1(C)C[C@]23[C@@H]4COC(=O)[C@H]2CC[C@H]1[C@@H]3CC4=O [Quadrone]
P2X7 response (% of control) (P2X7 [1]; [5]): 40.82 % of control

CO[C@H]1[C@@H](O)[C@@H](C)O[C@@H](OC2CCC3(C)C(CCC4C3C(O)CC3(C)C(C5=CC(=O)OC5)CCC43O)C2)[C@@H]1O (some centres unmarked) [Sarnovid]
P2X7 response (% of control) (P2X7 [1]; [5]): 38.95 % of control

COc1cc2ccc(=O)oc2cc1O [Scopoletin]
Effect on YO-PRO-1 uptake at high concentrations (P2X7 [1]; > 30 µM, HEK-hP2X7): reduction of YO-PRO-1 uptake in hP2X7 cells at high concentrations | pIC50 (P2X7 [1]; ATP 1 mM): 4.40

C=C(NC(=O)C(=C)NC(=O)c1csc(C2=N[C@@H]3c4csc(n4)[C@H]4NC(=O)c5csc(n5)[C@H]([C@](C)(O)[C@@H](C)O)NC(=O)[C@H]5CSC(=N5)/C(=C/C)NC(=O)[C@H]([C@@H](C)O)NC(=O)c5csc(n5)[C@]3(CC2)NC(=O)[C@H](C)NC(=O)C(=C)NC(=O)C(=C)NC(=O)[C@H](C(C)C)N[C@@H]2C=Cc3c([C@H](C)O)cc(nc3[C@H]2O)C(=O)O[C@@H]4C)n1)C(N)=O [Siomycin A]
P2X7 response (% of control) (P2X7 [1]; screen for PAM activity): 157.10 % of control

COC1=C(N)C(=O)c2nc(-c3nc(C(=O)O)c(C)c(-c4ccc(OC)c(OC)c4O)c3N)ccc2C1=O [Streptonigrin]
P2X7 response (% of control) (P2X7 [1]; screen for PAM activity): 139.02 % of control

COc1ccc2c(c1OC)CN1CCc3cc4c(cc3C1C2)OCO4 (centres unmarked) [Tetrahydroberberine]
Effect on ATP-mediated YO-PRO-1 uptake (P2X7 [1]; 10 µM, 10 min pre-incubation, ATP 1 mM): able to reduce ATP-mediated YO-PRO-1 uptake | P2X7 response (% of control) (P2X7 [1]; [5]): 26.9 % of control

CO[C@@H]1/C=C/O[C@@]2(C)Oc3c(C)c(O)c4c(c3C2=O)C(=N[C@@H]2CC[C@@H](O)O[C@H]2C)C=C(NC(=O)/C(C)=C\C(=O)[C@@H]2C[C@@H]2[C@H](O)[C@@H](C)[C@@H](O)[C@@H](C)[C@H](OC(C)=O)[C@@H]1C)C4=O [Tolypromycin Y]
P2X7 response (% of control) (P2X7 [1]; [5]): 47.05 % of control

COc1cc(C=O)ccc1O [Vanilline]
P2X7 response (% of control) (P2X7 [1]; screen for PAM activity): 158.27 % of control

COC(=O)/C(=C1/OC(=O)C(c2ccccc2)=C1O)c1ccccc1 [Vulpinic acid]
P2X7 response (% of control) (P2X7 [1]; screen for PAM activity): 150.3 % of control

CC1=C(C)C(=O)O[C@@H]([C@](C)(O)[C@H]2CC[C@H]3[C@@H]4[C@@H]5O[C@@H]5[C@@]5(O)CC=CC(=O)[C@]5(C)[C@H]4CC[C@]23C)C1 [Withanolide A]
P2X7 response (% of control) (P2X7 [1]; screen for PAM activity): 149.93 % of control

O=C(O)c1cc(O)c(O)c(O)c1 [gallic acid]
pIC50 (hP2X7 [4]; inhibition of hP2X7 currents by electrophysiology, read-out: IC50 value): 5.37

COc1ccc2c(c1)CC=C(CO)c1cc3c(cc1-2)OCO3 [tenuifolin]
Effect on P2X7 responses (P2X7 [1]): no effect on P2X7 responses

COc1cc([C@@H]2c3cc4c(c(O)c3C[C@H]3COC(=O)[C@@H]32)OCO4)cc(OC)c1OC [Β-peltatin]
P2X7 response (% of control) (P2X7 [1]; [5]): 31.98 % of control

Erythromycin cyclopentylproprionate
P2X7 response (% of control) (P2X7 [1]; screen for PAM activity): 126.67 % of control

Hexopyranuronic acid
P2X7 response (% of control) (P2X7 [1]; screen for PAM activity): 147.11 % of control

Medicarpin
P2X7 response (% of control) (P2X7 [1]; screen for PAM activity): 140.60 % of control

Monoacetyl verrucan A
P2X7 response (% of control) (P2X7 [1]; screen for PAM activity): 170.65 % of control

Ossamycin
P2X7 response (% of control) (P2X7 [1]; screen for PAM activity): 145.55 % of control

Predorine
P2X7 response (% of control) (P2X7 [1]; screen for PAM activity): 740.31 % of control

Scopafungin
Sensitivity of the potentiated ATP response to P2X7 antagonist AZ10606120 (P2X7 [1]; AZ10606120 10 µM): could be prevented by pre-treatment with the P2X7 selective antagonist, AZ10606120 | YO-PRO-1 uptake in the absence of ATP (P2X7 [1]; HEK-hP2X7): increase in YO-PRO-1 uptake in the absence of ATP | Effect on ATP concentration–response curve (P2X7 [1]; compound 10 µM): increase the maximum response to ATP and increase the sensitivity to ATP | P2X7 response (% of control) (P2X7 [1]; screen for PAM activity): 159.83 % of control
